Experimental data: patent publication US8242160B2, “Inhibitors of ubiquitin E1” (The United States of America, as represented by the …, priority 2005, dated 2012)

Legend:
U2O cells = experiment: Proteasome inhibitor-induced accumulation of ubiquitylated proteins; format: cell-based; conditions: 50 μM with ALLN 50 μM, four hours
His6-E1 = molecular target: T1, His6-E1 (Homo sapiens, UniProt P22314); experiment: Bead immobilized His6-E1: wash-out and glutathione competition; format: biochemical
T1 sequence (P22314 1-1058): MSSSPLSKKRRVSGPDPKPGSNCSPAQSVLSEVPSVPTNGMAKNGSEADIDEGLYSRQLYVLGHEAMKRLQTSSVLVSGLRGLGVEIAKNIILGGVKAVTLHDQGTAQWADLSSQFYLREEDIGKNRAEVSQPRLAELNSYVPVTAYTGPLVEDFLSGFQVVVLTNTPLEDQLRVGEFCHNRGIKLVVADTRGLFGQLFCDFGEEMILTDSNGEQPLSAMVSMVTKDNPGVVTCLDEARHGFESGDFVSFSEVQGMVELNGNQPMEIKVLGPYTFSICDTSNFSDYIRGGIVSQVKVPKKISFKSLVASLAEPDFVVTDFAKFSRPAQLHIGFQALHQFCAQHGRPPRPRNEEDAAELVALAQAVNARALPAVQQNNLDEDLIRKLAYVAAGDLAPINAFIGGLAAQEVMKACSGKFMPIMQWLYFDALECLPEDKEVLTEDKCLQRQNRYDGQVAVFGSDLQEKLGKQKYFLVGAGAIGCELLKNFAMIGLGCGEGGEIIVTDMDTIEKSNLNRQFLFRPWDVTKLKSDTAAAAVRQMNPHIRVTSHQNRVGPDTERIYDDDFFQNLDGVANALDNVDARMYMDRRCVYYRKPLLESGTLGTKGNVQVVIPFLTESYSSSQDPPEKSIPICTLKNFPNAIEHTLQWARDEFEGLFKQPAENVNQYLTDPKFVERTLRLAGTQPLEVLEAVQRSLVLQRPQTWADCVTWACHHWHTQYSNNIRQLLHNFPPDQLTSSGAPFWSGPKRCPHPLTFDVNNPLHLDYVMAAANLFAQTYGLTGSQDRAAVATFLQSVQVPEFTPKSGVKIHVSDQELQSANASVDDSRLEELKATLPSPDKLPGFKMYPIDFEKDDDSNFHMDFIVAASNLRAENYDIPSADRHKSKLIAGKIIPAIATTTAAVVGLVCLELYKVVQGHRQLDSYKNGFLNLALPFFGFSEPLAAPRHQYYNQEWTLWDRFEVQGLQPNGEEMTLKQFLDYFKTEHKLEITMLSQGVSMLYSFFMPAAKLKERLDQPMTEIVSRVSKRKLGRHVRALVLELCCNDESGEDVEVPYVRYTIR
Method: Bead immobilized His6-E1 was treated with E1 inhibitor 4-[4-(5-nitro-furan-2-ylmethylene)-3,5-dioxo-pyrazolidin-1-yl]-benzoic acid methyl acid (E1 41) at a range of concentrations (0-50 μm) as indicated in FIG. 9A. The beads were subjected to wash (+wash) or no wash (−wash) conditions.
The ability of a compound to inhibit E1 activity may come from the ability of the compound to interfere with the formation of thiolester linkages between ubiquitin and E1. Next, the biological activity of E1 41 was tested to examine if it can be inhibited or prevented by treatment with an excess of reduced glutathione. […] Thus, E1 41 can act as a target for nucleophilic attack by active site thiol of E1 (e.g., a central double bond of a compound can serve as Michael-acceptor for the nucleophilic thiol in a Michael-type reaction).

p53 = experiment: p53-driven luciferase reporter assay; format: cell-based
Description: FIG. 5B depicts the results of reporter assays showing that the p53 induced by 4-[4-(5-nitro-furan-2-ylmethylene)-3,5-dioxo-pyrazolidin-1-yl]-benzoic acid methyl acid is transcriptionally active.

cyclin E = experiment: Degradation of in vitro translated cyclin E in S-100 cytosolic extract; format: biochemical
Description: Cytosolic extracts from cells (S-100) contain all the components for ubiquitination and proteasomal degradation. To further evaluate 4-[4-(5-nitro-furan-2-ylmethylene)-3,5-dioxo-pyrazolidin-1-yl]-benzoic acid methyl acid, we made use of in vitro translated cyclin E, which is degraded in S-100 in a time-dependent manner (FIG. 3, upper panel, lanes 1-4).

IκBα = experiment: TNFα-induced IκBα phosphorylation in cells; format: cell-based; conditions: 1 minute stimulation
GST-UbcH5B = molecular target: T2, GST-UbcH5B (Homo sapiens, UniProt P62837); experiment: E1+E2 assay: formation of E2-ubiquitin complex; format: biochemical; conditions: E1 preloaded with 32P-labeled ubiquitin, then E2 added with compound
T2 construct: made in house; host or cells: bacteria
Method: One way that the compounds might inactivate E1 is by alkylating or otherwise irreversibly inactivating active site cysteines. Like E1, E2 also uses a cysteine to form thiolester bond with ubiquitin. Inhibitors that directly act on the cysteine of E1 might therefore also affect E2 activity, and thus function in a relatively non-specific manner. […]
c. E1+E2 Assay with Immobilized E2 • 20 pmoles of bacterially-expressed GST-UbcH5B are bound to GS beads for 30 minutes at room temperature. […] This is followed by resolution by SDS-PAGE under non-reducing conditions and exposure as above.

NFκB = NFκB response element-driven luciferase reporter, IL-1 induced; format: cell-based, human; conditions: HeLa cells, 50 μM for 10 minutes, then IL-1 0-1.0 ng/ml for 2 hours
Method: HeLa cells (human epithelial cells) were transfected with a NFκB response element-driven luciferase reporter. The cells were treated with E1 41 (50 μM) for 10 minutes, or dimethyl sulfoxide (DMSO) control. Interleukin 1 (IL-1) was added to the cells for 2 hours. IL-1 was added at concentrations ranging from 0-1.0 ng/ml to induce activation of NFκB. An assay for luciferase activity was carried out according to the methods as described in the commercially available PROMEGA system for luciferase detection.

T2 sequence (P62837 whole entry): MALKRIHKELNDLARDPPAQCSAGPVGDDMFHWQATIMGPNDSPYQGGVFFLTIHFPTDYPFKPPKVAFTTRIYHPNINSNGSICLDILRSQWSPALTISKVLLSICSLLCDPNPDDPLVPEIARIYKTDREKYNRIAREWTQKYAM

removal of compound from E1 by washing (His6-E1; 0-50 μm, wash versus no wash): cannot be washed away
IL-1 induced NFκB luciferase reporter activity (NFκB): reduction of luciferase activity
SMILES: COC(=O)c1ccc(N2NC(=O)/C(=C/c3ccc([N+](=O)[O-])o3)C2=O)cc1 [E1-41, 4-[4-(5-nitro-furan-2-ylmethylene)-3,5-dioxo-pyrazolidin-1-yl]-benzoic acid methyl acid]
accumulation of ubiquitylated proteins in proteasome inhibitor-treated cells (U2O cells): inhibit the accumulation of ubiquiylated proteins
effect of reduced glutathione on the inhibitory action on E1 (His6-E1; 50 μM compound, GSH 0.1-10 mM): can be prevented by the addition of reduced glutathione (GSH) in a dose-dependent manner
activation of p53-driven luciferase reporter (p53): activated a p53-driven luciferase reporter to a level comparable to adriamycin
cyclin E degradation in S-100 (cyclin E; no exogenous E1): block cyclin E degradation
cyclin E degradation in S-100 after addition of purified exogenous E1 (cyclin E; purified exogenous E1 added to the reaction mixture): inhibition of cyclin E degradation was prevented
IκBα phosphorylation following TNFα treatment (IκBα): blocks IκBα phosphorylation
transfer of ubiquitin from E1 to E2 (formation of E2-ubiquitin complex) (GST-UbcH5B): did not affect transfer of ubiquitin from E1 to E2
